The test system of this assay is HeLa. Description: Cytotoxicity against human HeLa cells. In kind it is functional.

Results on 1 compound are retold here after ChEMBL document CHEMBL1150087, “Structural Revision of Physalin H Isolated from Physalis angulata” (1995).

SMILES strings stand for the structures. Calls of active or inactive are those of the source. No cut-off for these calls is given here.

For the compound `C[C@@]12C[C@H]3OC(=O)[C@@H]1CO[C@@]14O[C@]5([C@H]2C1=O)[C@@](O)(CC[C@H]1[C@H]4C[C@@H](O)[C@@]2(O)CC=CC(=O)[C@]12C)C(=O)O[C@@]35C`, the ID50 entry was “inactive”.
